# Experimental data from US20050049206A1, “Compositions of flavonoids and flavonoid-containing extracts and the treatment of diseases” (priority 2003, published 2005).
# Entries after “also recorded” stand apart in the source; their conditions may differ. Where two headings read alike, the source gives them in different places.
# Legend:
# [1] = test system: pulmonary fibrosis in bleomycin-induced rats; assay: Histopathological / morphologic examination of lungs in bleomycin-induced pulmonary fibrosis rats; type: in vivo, Sprague-Dawley rats; details: for Alveolitis Score 0 (number of rats) / Alveolitis Score I (number of rats) / Alveolitis Score II (number of rats) / Alveolitis Score III (number of rats) / Pulmonary Fibrosis Score 0 (number of rats) / Pulmonary Fibrosis Score I (number of rats) / Pulmonary Fibrosis Score II (number of rats) / Pulmonary Fibrosis Score III (number of rats): BL-instilled rats, day 28, n=10; for pulmonary anti-fibrotic activity: animal experiments (rats)
# [2] = test system: pulmonary fibrosis in bleomycin-induced rats; assay: Assays of bronchoalveolar lavage fluid in bleomycin-induced pulmonary fibrosis rats; type: in vivo, Sprague-Dawley rats; details: BL-instilled rats, day 28, n=10
# Acute toxicity (LD50) = details: in vivo
# [3] = test system: CCl4-induced liver cirrhosis in rats; assay: Hepatic cirrhosis in CCl4-induced rats; type: in vivo, Sprague-Dawley rats; details: for ALT decrease / AST decrease: serum, 450 mg/kg by gavage for 3 weeks after 8 weeks CCl4, P<0.001 (FIG. 10)
# Source text: Animals and method of baicalin dosing: Fibrosis was induced by chronic CCl4 administration to rats. Sprague-Dawley rats weighing 200-240 g received three doses a week i.p. of a mixture 1:6 of CCl4-mineral oil for the first week; then the second week the ratio was 1:5, the third week 1:4, and the 4th-8th weeks the ratio was 1:3 [Armendariz Biochim Biophys Acta 1997;1353:241-252, Armendariz Hepatology 1991;14:895-900.]. CCl4 intoxication was stopped and cirrhotic animals were then fed by gavage either with the baicalin (n=10) at the dosage of 450 mg/kg or saline (n=10) as a control for 3 more weeks.
# Statistical analysis: Results relative to the number of experiments indicated, are expressed as mean ±SD. Statistical analyses were perfomed using Student's t-test.
# Preparation of liver homogenates: Rats were killed at indicated times and liver homogenates were prepared from 150 mg of tissue as described [Gao Hum Gene Ther 1999;10:911-922.] and kept at −70° C. At the same time, serum samples were obtained and kept at −20° C. until used. Total protein levels in serum were determined using Bradford assay of protein quantification [Bradford Anal Biochem 1976;72:248-254.].
# Biochemical assays: Blood was drawn from control and experimental cirrhotic animals at the moment of sacrifice and serum transaminases alanine aminotransferase (ALT), aspartate aminotransferase (AST) and alkaline phosphatase (ALP) were determined in an automated Sincron-7 machine.
# Hydroxyproline content biochemical determinations: Liver samples were obtained at the moment of sacrifice and 150 mg were subjected to acid hydrolysis to determine the amount of hydroxyproline according to Rojkind and coworkers [Rojkind Anal Biochem 1974; 57:1-7].
# [4] = baicalein by gavage once a day (350 or 450 mg/kg/day)
# [5] = baicalin 450 mg/kg/day by gavage
smiles,measurement,setting,value
"O=c1cc(-c2ccccc2)oc2cc(O)c(O)c(O)c12 [Baicalein, 5,6,7-Trihydroxy-2-phenyl-4H-chromen-4-one]",Alveolitis Score 0 (number of rats),[1]; baicalein by gavage once a day,0
same,Alveolitis Score I (number of rats),[1]; baicalein by gavage once a day,8
same,Alveolitis Score II (number of rats),[1]; baicalein by gavage once a day,2
same,Alveolitis Score III (number of rats),[1]; baicalein by gavage once a day,0
same,Pulmonary Fibrosis Score 0 (number of rats),[1]; baicalein by gavage once a day,0
same,Pulmonary Fibrosis Score I (number of rats),[1]; baicalein by gavage once a day,7
same,Pulmonary Fibrosis Score II (number of rats),[1]; baicalein by gavage once a day,3
same,Pulmonary Fibrosis Score III (number of rats),[1]; baicalein by gavage once a day,0
same,pulmonary anti-fibrotic activity,[1],dramatic and novel pulmonary anti-fibrotic activity
same,extracellular fibers and mononuclear cell alveolitis of lungs compared with the BL group,"[1]; baicalein by gavage, BL-rat model",considerably less extracellular fibers and mononuclear cell alveolitis
same,fibrotic score (lung),"[1]; oral baicalein, BL-induced rats",dramatic effect
same,LDH,[2]; [4],1389.61 ± 526.34 U/L
same,Mononuclear cells,[2]; [4],501.0 ± 310.2 ×10^4/ml
same,Protein,[2]; [4],1.95 ± 0.35 g/L
same,LD50,Acute toxicity (LD50),11000 mg/kg
same,acute toxicity,Acute toxicity (LD50),about 11 g/kg body weight
same,LD50,Acute toxicity (LD50); read-out: LD50,14000 mg/kg
"O=C(O)[C@H]1O[C@@H](Oc2cc3oc(-c4ccccc4)cc(=O)c3c(O)c2O)[C@H](O)[C@@H](O)[C@@H]1O [Baicalin, (2S,3S,4S,5R,6S)-6-(5,6-dihydroxy-4-oxo-2-phenyl-4H-chromen-7-yloxy)-tetrahydro-3,4,5-trihydroxy-2H-pyran-2-carboxylic acid]",Alveolitis Score 0 (number of rats),[1]; [5],0
same,Alveolitis Score I (number of rats),[1]; [5],7
same,Alveolitis Score II (number of rats),[1]; [5],3
same,Alveolitis Score III (number of rats),[1]; [5],0
same,Pulmonary Fibrosis Score 0 (number of rats),[1]; [5],0
same,Pulmonary Fibrosis Score I (number of rats),[1]; [5],6
same,Pulmonary Fibrosis Score II (number of rats),[1]; [5],4
same,Pulmonary Fibrosis Score III (number of rats),[1]; [5],0
same,pulmonary anti-fibrotic activity,[1],dramatic and novel pulmonary anti-fibrotic activity
same,lung lesions (morphology) compared with the BL group,"[1]; baicalin-treated BL-induced rats, day 28, HE staining",of a more mild nature than that of the BL group; also recorded: considerably less extracellular fibers and mononuclear cell alveolitis; also recorded: of a more mild nature than those of the BL group
same,fibrotic index (lung),"[1]; oral baicalin, BL-induced rats",dramatic effect
same,LDH,[2]; [5],1331.61 ± 516.68 U/L
same,Mononuclear cells,[2]; [5],465.0 ± 320.2 ×10^4/ml
same,Protein,[2]; [5],1.85 ± 0.52 g/L
same,"macroscopic view of cirrhotic livers, treated vs non-treated","[3]; 450 mg/kg baicalin, n=10, P<0.001 (FIG. 8)",remarkable differences in the entire granular texture of the liver
same,hydroxyproline level of liver (relative collagen content per g of liver) vs non-treated,"[3]; baicalin 450 mg/kg by gavage for 3 weeks after 8 weeks CCl4, P<0.05 (FIG. 9)",significantly lower
same,liver fibrosis reduction as compared with saline controls,"[3]; baicalin 450 mg/kg daily by gavage for 3 weeks after 8 weeks CCl4, n=10",40%
same,fibrotic index (liver),"[3]; oral baicalin 450 mg/kg, CCl4 rats (FIG. 8)",dramatic effect
same,ALT decrease,[3],over 2 fold
same,AST decrease,[3],over 3 fold
same,acute toxicity,Acute toxicity (LD50),~14 g/kg body weight
same,LD50,Acute toxicity (LD50); read-out: LD50,11000 mg/kg
"Cc1ccc(=O)n(-c2ccccc2)c1 [Pirfenidone, reference compound]",ALT decrease,[3],over 2 fold
same,AST decrease,[3],over 3 fold
